# Tested on: not given
# Assay: not given
# Conditions: not given
row,Structure (SMILES),melting point
1,"CC(C)n1cc(-c2ccc(C(=O)O)cc2)cc1-c1cnc2c(n1)C(C)(C)CCC2(C)C [Example 33, 4-[4-[2-[2-(5,6,7,8-tetrahydro-5,5,8,8-tetramethylquinoxalyl)]-1-isopropylpyrrolyl]]benzoic acid]",225 to 227 °C
2,"CC(C)c1ncc(-c2cc(-c3ccc(C(=O)O)cc3)cs2)nc1C(C)C [Example 30, 4-[4-[2-[2-(5,6-Diisopropylpyrazinyl)]thienyl]]benzoic acid]",226 to 229 °C
3,"CCn1cc(-c2ccc(C(=O)O)cc2)cc1-c1cnc(C(C)C)c(C(C)C)n1 [Example 36, 4-[4-[2-[2-(5,6-Diisopropylpyrazinyl)]-1-ethylpyrrolyl]]benzoic acid]",272 to 274 °C
4,"CC(C)c1ncc(-c2ccc(-c3ccc(C(=O)O)cc3)o2)nc1C(C)C [Example 48, 4-[2-[5-[2-(5,6-Diisopropropylpyrazinyl)]furyl]]benzoic acid]",260 to 262 °C
5,"O=C(O)c1ccc(NC(=O)c2cnc(C3CCCC3)c(C3CCCC3)n2)cc1 [Example 90, 4-(2,3-Dicyclopentyl-2-pyrazinecarbamoyl)benzoic acid]",248 to 250 °C
6,"Cc1oc(-c2cnc3c(n2)C(C)(C)CCC3(C)C)cc1-c1ccc(C(=O)O)cc1 [Example 40, 4-[3-[5-[2-(5,6,7,8-Tetrahydro-5,5,8,8-tetramethylquinoxalyl)]-2-methylfuryl]]benzoic acid]",270 to 272 °C
7,"CC(C)c1nnc(C(=O)Nc2ccc(C(=O)O)cc2)nc1C(C)C [Example 91, 4-(5,6-Diisopropyl-3-[1,2,4]triazinecarbamoyl)benzoic acid]",182 to 184 °C
8,"CC(C)c1ncc(-c2ccc(-c3ccc(C(=O)O)cc3)s2)nc1C(C)C [Example 46, 4-[2-[5-[2-(5,6,-Diisopropylpyrazinyl)]thienyl]]benzoic acid]",270 to 272 °C
9,"CC1(C)CCC(C)(C)c2nc(-c3ccc(-c4ccc(C(=O)O)cn4)[nH]3)cnc21 [Example 45, 6-[2-[5-[2-(5,6,7,8-Tetrahydro-5,5,8,8-tetramethylquinoxalyl)]pyrrolyl]]nicotinic acid]",278 °C (dec.)
10,"CC(C)c1ncc(-c2ccc(-c3ccc(C(=O)O)cc3)n2C(C)C)nc1C(C)C [Example 51, 4-[2-[5-[2-(5,6-Diisopropylpyrazinyl)]-1-isopropylpyrrolyl]]benzoic acid]",215 °C (dec.)
11,Cc1c(-c2ccc(C(=O)O)cc2)cc(-c2cnc3c(n2)C(C)(C)CCC3(C)C)n1C [Example 37],265 to 267 °C
12,"Cc1sc(-c2cnc3c(n2)C(C)(C)CCC3(C)C)cc1-c1ccc(C(=O)O)cc1 [Example 32, 4-[3-[5-[2-(5,6,7,8-Tetrahydro-5,5,8,8-tetramethylquinoxalyl)]-2-methylthienyl]]benzo acid]",215 to 217 °C
13,"Cc1[nH]c(-c2cnc3c(n2)C(C)(C)CCC3(C)C)cc1-c1ccc(C(=O)O)cc1 [Example 29, 4-[3-[5-[2-(5,6,7,8-Tetrahydro-5,5,8,8-tetramethylquinoxalyl)]-2-methylpyrrolyl]]benzoic acid]",248 to 250 °C
14,"CC(C)c1ncc(-c2cc(-c3ccc(C(=O)O)cc3)c[nH]2)nc1C(C)C [Example 27, 4-[4-[2-[2-(5,6-Diisopropylpyrazinyl)]pyrrolyl]]benzoic acid]",245 °C (dec.)
15,"CC(C)c1ncc(-c2cc(-c3ccc(C(=O)O)cc3)co2)nc1C(C)C [Example 38, 4-[4-[2-[2-(5,6-Diisopropylpyrazinyl)]furyl]]benzoic acid]",215 to 218 °C
16,"CC1(C)CCC(C)(C)c2nc(-c3cc(-c4ccc(C(=O)O)cc4)cn3Cc3cccnc3)cnc21 [Example 41, 4-[4-[2-[2-(5,6,7,8-tetrahydro-5,5,8,8-tetramethylquinoxalyl)]-1-(3-pyridylmethyl)pyrrolyl]]benzoic acid]",263 to 266 °C

# More lines, now with the values ahead:
row,melting point,Structure (SMILES)
1,145 to 147 °C,"CC1(C)CC(C)(C)c2nc(-c3cc(-c4ccc(C(=O)O)cc4)c[nH]3)cnc21 [Example 28, 4-[4-[2-[2-(5,5,7,7-Tetramethylcyclopenta[b]pyrazinyl)]pyrrolyl]]benzoic acid]"
2,222 °C (dec.),"CC1(C)CC(C)(C)c2nc(-c3cc(-c4ccc(C(=O)O)cc4)cs3)cnc21 [Example 31, 4-[4-[2-[2-(5,5,7,7-Tetramethylcyclopenta[b]pyrazinyl)]thienyl]]benzoic acid]"
3,236 to 238 °C,"CC1(C)CC(C)(C)c2nc(C(=O)Nc3ccc(C(=O)O)cc3)cnc21 [Example 89, 4-(5,5,7,7-Tetramethyl-2-cyclopenta[b]pyrazinecarbamoyl)benzoic acid]"
4,250 °C (dec.),"Cn1cc(-c2ccc(C(=O)O)cc2)cc1-c1cnc2c(n1)C(C)(C)CC2(C)C [Example 35, 4-[4-[2-[2-(5,5,7,7-Tetramethylcyclopenta[b]pyrazinyl)]-1-methylpyrrolyl]]benzoic acid]"
5,238 to 240 °C,"CC1(C)CC(C)(C)c2nc(-c3ccc(-c4ccc(C(=O)O)cc4)o3)cnc21 [Example 49, 4-[2-[5-[2-(5,5,7,7-Tetramethylcyclopenta[b]pyrazinyl)]-furyl]]benzoic acid]"
6,250 to 252 °C,"CC1(C)CC(C)(C)c2nc(-c3cc(-c4ccc(C(=O)O)cc4)co3)cnc21 [Example 39, 4-[4-[2-[2-(5,5,7,7-Tetramethylcyclopenta[b]pyrazinyl)]-furyl]]benzoic acid]"
7,275 °C (dec.),"CC1(C)CC(C)(C)c2nc(-c3ccc(-c4ccc(C(=O)O)cc4)s3)cnc21 [Example 47, 4-[2-[5-[2-(5,5,7,7-Tetramethylcyclopenta[b]pyrazinyl)]-thienyl]]benzoic acid]"
8,218 to 220 °C,"Cn1c(-c2ccc(C(=O)O)cc2)ccc1-c1cnc2c(n1)C(C)(C)CC2(C)C [Example 50, 4-[2-[5-[2-(5,5,7,7-Tetramethylcyclopenta[b]pyrazinyl)]-1-methylpyrrolyl]]benzoic acid]"
9,257 to 259 °C,"CC1(C)CCC(C)(C)c2nc(C(=O)Nc3ccc(C(=O)O)cc3)cnc21 [Example 88, 4-(5,6,7,8-Tetrahydro-5,5,8,8-tetramethyl-2-quinoxalinecarbamoyl)benzoic acid]"

# Tested on: HL60 cells
# Assay: Differentiation and induction effects on HL60 cells (CD11b positive cells, flow cytometry)
# Assay type: cell-based
# Conditions: Homo sapiens, HL-60, 120 h; concentration at which the existing ratio of CD11b positive cells becomes 33%; cultivation for 5 days; read-out: Differentiation and induction effects of HL60 cells ED1/3
# From the text: Differentiation and Induction Effects on HL60 Cells
# It is known that human-derived promyelocytic leukemia cell strains HL60 differentiate into the corresponding granulocytic cells in the presence of all-trans retinoic acid [Breitman, T. Selonick., S. and Colling, S. Proc. Natl. Acad. Sci., 77, 2936(1980)]. In general, cells after differentiation have come to express specific differentiated antigens on their surface. When the HL60 cells are differentiated into granulocytic cells, CD11b which is a differential antigen between granulocytes and monocytes is expressed on the surface of the cells [Fontana, J A., Reppuci, A. Durham, J P. and Mirand, D. Cancer Res. 46, 2469-2473(1986)]. Effects of the invention compound on the differentiation and induction into granulocyte cells were studied by making use of the above-described phenomenon.
# HL60 cells were cultured and kept in RPMI 1640 (a medium formulated by Rosewell Park Memorial Institute) to which 10% bovine fetal serum, 1 mM sodium […], 50 μM β-mercaptoethanol, 100 IU/ml of penicillin and 100 μg/ml of streptomycin had been added.
# On each well of a 24-well plate, a 1 ml portion of the suspension containing HL60 in an amount of 1×10^5 […] was seeded. The invention compound was then added thereto at varied concentrations, followed by cultivation for 5 days in a 5% CO2-air incubator. After cultivation, the cells of each well were collected in a test tube, to which an FITC-labeled monoclonal antibody against Cd11b, that is, a granulocyte-monocyte specific antigen was added. The cells were then immobilized with 0.2% paraformaldehyde. The existing ratio of CD11b positive cells in the vial HL60 cell group present in each well was determined using flow cytometry [Miller, L J., Schwarting, R. and Springer, T A. J. Immunol. 137, 2891-2900(1986)]. The existing ratios of CD11b positive cells-of-compounds which will be described below were increased according to the concentration. The concentration at which the existing ratio of the positive cells becomes 33% is defined as ED1/3.
row,Structure (SMILES),EC (33% CD11b positive cells)
1,"CN1CCCC(C)(C)c2cc(-c3ccc(-c4ccc(C(=O)O)cc4)[nH]3)ccc21 [Compound of Ex. 85, 4-{2-{5-[7-(1,5,5-Trimethyl-2,3,4,5-tetrahydro-1H-benzazepinyl)]pyrrolyl}}benzoic acid]",0.001 µM
2,"CC1(C)CCC(C)(C)c2nc(-c3cc(-c4ccc(C(=O)O)cc4)co3)cnc21 [Compound of Ex. 4, 4-[4-[2-[2-(5,6,7,8-Tetrahydro-5,5,8,8-tetramethylquinoxalyl)]furyl]]benzoic acid]",0.0002 µM
3,"CC1=C(/C=C/C(C)=C/C=C/C(C)=C/C(=O)O)C(C)(C)CCC1 [All-trans-retinoic acid, reference compound]",0.0018 µM

# Target: T1, Retinoic acid receptor: RAR (Homo sapiens, UniProt P10276)
# T1 construct: using a fraction extracted from the nucleus of HL60; endogenous in cells; host or cells: HL60 cells, nucleus-extracted fraction (0.4 M KCl extract, 100,000 x g supernatant)
# T1 sequence (P10276 1-462): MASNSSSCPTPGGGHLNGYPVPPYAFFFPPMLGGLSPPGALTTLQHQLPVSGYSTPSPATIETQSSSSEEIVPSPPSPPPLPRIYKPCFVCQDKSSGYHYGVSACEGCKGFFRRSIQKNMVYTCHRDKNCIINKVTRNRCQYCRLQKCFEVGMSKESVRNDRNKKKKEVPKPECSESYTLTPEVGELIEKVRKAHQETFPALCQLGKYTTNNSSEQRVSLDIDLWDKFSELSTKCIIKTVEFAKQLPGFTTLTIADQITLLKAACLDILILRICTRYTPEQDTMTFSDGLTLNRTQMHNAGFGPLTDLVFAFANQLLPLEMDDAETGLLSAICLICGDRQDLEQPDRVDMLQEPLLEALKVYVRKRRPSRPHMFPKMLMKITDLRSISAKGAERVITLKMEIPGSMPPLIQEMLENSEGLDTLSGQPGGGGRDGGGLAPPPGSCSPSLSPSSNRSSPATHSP
# Assay: Receptor binding assay by using human promyelocytic leukemia cells HL60 (nucleus-extracted fraction, 3H-all-trans retinoic acid)
# Conditions: 50% inhibition concentration of 3H-all-trans retinoic acid binding, 4° C. for 16 hours
# Procedure: Receptor binding assay by using human promyelocytic leukemia cells HL60
# The nucleus-extracted fraction was prepared as described below.
# In 15 ml of Solution A [5 mM sodium phosphate (pH 7.4), 10 mM monothioglycerol, 10% v/v glycerol, 1 mM phenylmethyl sulfonyl fluoride (PMSF), 10 μg/ml of aprotinin and 25 μg/ml of leupeptin], HL60 cells (5×10^8) were suspended. The resulting suspension was homogenized, followed by centrifugal separation to remove the supernatant. The precipitate so obtained was suspended in 15 ml of Solution B [10 mM tris-HCl (Tris-HCl) (pH 8.5), 10 mM monothioglycerol, 10% (v/v) glycerol, 1 mM PMSF, 10 μg/ml aprotinin, 25 μg/ml leupeptin and 0.4 M KC1]. After being allowed to stand at 4° C. for one hour, the resulting suspension was subjected to ultracentrifugation at 100,000 xg and 4° C. for one hour.
# Receptor binding assay was carried out as follows:
# The resulting mixture was allowed to stand at 4° C. for 16 hours. […] The count of the supernatant was determined by a scintillation counter.
row,Structure (SMILES),IC50
1,"CN1CCCC(C)(C)c2cc(-c3ccc(-c4ccc(C(=O)O)cc4)[nH]3)ccc21 [Compound of Ex. 85, 4-{2-{5-[7-(1,5,5-Trimethyl-2,3,4,5-tetrahydro-1H-benzazepinyl)]pyrrolyl}}benzoic acid]",< 0.5 nM
2,"CC1(C)CCC(C)(C)c2nc(-c3cc(-c4ccc(C(=O)O)cc4)co3)cnc21 [Compound of Ex. 4, 4-[4-[2-[2-(5,6,7,8-Tetrahydro-5,5,8,8-tetramethylquinoxalyl)]furyl]]benzoic acid]",7.2 nM

# From patent US6884808B2, “Heterocycle-containing carboxylic acid derivative and drug containing the same” (Eisai Co. Ltd., priority 1995, dated 2005)
